We go through one compound from patent publication US10857193B2, “Extract formulation of Opuntia ficus indica” (FINZELBERG GMBH & CO. KG, priority 2007, dated 2020).

For the assay, the system named is blood glucose. Kind of assay: Oral glucose tolerance test (oGTT), hypoglycaemic effect in an animal model. In kind it is in vivo, Wistar rats. Particulars: oGTT in rats, result in words; FIG. 3 expressed as percent AUC vs control, n=5-6 per group. On the procedure: A standard means of testing extracts or novel chemical compounds for effects on blood sugar levels is the oGTT (Verspohl, 2002). This involves administering the extract, a blind control or a known anti-diabetic to different groups of a rat population and administering an […] dose of glucose to a sub-group of each group. The extracts were administered 30 minutes before the glucose. Blood samples were taken sublingually 0, 15, 30, 60 and 120 minutes after glucose administration or at 0, 30, 60, 120 and 180 minutes for baseline blood sugar levels. The sampling schedule described served both to track the effect of the extracts on baseline blood sugar levels over a longer period and to track the effect on blood sugar levels following a glucose load.
All of the tested extracts, the blind control and the glibenclamide reference oral anti-diabetic contained propylene glycol as a solubilising agent and were administered orally via a feeding tube. […]
The samples were centrifuged at 8600 U/min for 10 minutes. The plasma supernatant was then analysed using an autoanalyser (Merck, Darmstadt). […]
Concentrations and kinetic data were analysed in Graphpad 4.0 (San Diego, USA) using one-way variance analysis (ANOVA) and the Newman-Keuls multiple comparison test. The area under the curve (AUC) was determined using the trapezoidal method without extrapolation beyond the final sampling point.

`COc1ccc(Cl)cc1C(=O)NCCc1ccc(S(=O)(=O)NC(=O)NC2CCCCC2)cc1` [glibenclamide, Glibenclamide]: the hypoglycaemic effect entry is listed as “hypoglycaemic effect”.
